Test results published in patent publication US10662204B2 (PFIZER INC., priority 2018, dated 2020).

How the values were obtained:
[1] = target: T1, GDP-loaded KRAS (1-169) G12C, C51S, C80L, C118S (Homo sapiens, UniProt P01116, C118S/C51S/C80L/G12C); assay: Mass Spectrometry Reactivity Assay (MSRA): covalent adduct of compound and KRAS G12C, Percent Modification; format: binding; settings: for MSRA (% modification) 10 μM 0.25 hr / MSRA (% modification) 10 μM 0.50 hr: 10 μM compound; for MSRA (% modification) 5.0 μM 0.25 hr / MSRA (% modification) 5.0 μM 0.017 hr: 5.0 μM compound
T1 construct: GDP-loaded KRAS (1-169) G12C, C51S, C80L, C118S
Summary of the method: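 GDP-loaded KRAS(1-169) G12C/C51S/C80L/C118S at 5 μM in 25 mM Hepes pH 7.5, 200 mM NaCl, 5% glycerol incubated at RT with compound (typically 5 or 10 μM final, 1% DMSO). Quenched in formic acid at 1-60 min; intact-protein LC-TOF MS gives % modification = modified/(modified+unmodified).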

KRAS G12C = KRAS G12C (Homo sapiens, UniProt P01116, G12C); assay: Cell Activity Assay: accumulation of GDP-bound KRAS G12C in MIAPaCa-2 cells (Raf-1 RBD capture, MSD readout); format: cell-based; design: endogenous in cells; host or cells: MIAPaCa-2; settings: 6 hours, assay limit is 30.00
Summary of the method: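 MIAPaCa-2 cells exposed 6 h at 37 °C to 3-fold compound dilutions (0.3% DMSO final), then lysed. Active GTP-KRAS captured on Raf-1 RBD-coated plates, detected with anti-pan-Ras and SULFO-TAG secondary by MSD electrochemiluminescence. Signal normalized to DMSO and maximum inhibition; IC50 from 4-parameter fit.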

SMILES	MSRA (% modification) 10 μM 0.25 hr [1] [%]	MSRA (% modification) 10 μM 0.50 hr [1] [%]	IC50 (KRAS G12C) [µM]	MSRA (% modification) 5.0 μM 0.25 hr [1] [%]	MSRA (% modification) 5.0 μM 0.017 hr [1] [%]
C=CC(=O)N1CCN(c2nc(OCC(C)(C)O)nc3c(Oc4c(Cl)c(F)cc5[nH]ncc45)nc(Cl)cc23)CC1 [Example 13G, 1-(4-{6-chloro-8-[(5-chloro-6-fluoro-1H-indazol-4-yl)oxy]-2-(2-hydroxy-2-methylpropoxy)pyrido[3,4-d]pyrimidin-4-yl}piperazin-1-yl)prop-2-en-1-one]	78	80	0.16	70	–
C=CC(=O)N1CCN(c2ncnc3c(Oc4cc(O)cc5ccccc45)nc(C)cc23)CC1 [Example 02, 1-(4-{8-[(3-Hydroxynaphthalen-1-yl)oxy]-6-methylpyrido[3,4-d]pyrimidin-4-yl}piperazin-1-yl)prop-2-en-1-one]	–	19	> 30	–	–
C=CC(=O)N1CCN(c2nc(Oc3cccc4c3CCN(C(C)C)C4)nc3c(Oc4c(C)ccc5[nH]ncc45)nccc23)CC1 [Example 30I, 1-[4-(8-[(5-methyl-1H-indazol-4-yl)oxy]-2-{[2-(propan-2-yl)-1,2,3,4-tetrahydro-isoquinolin-5-yl]oxy}pyrido [3,4-d]pyrimidin-4-yl)piperazin-1-yl]prop-2-en-1-one]	–	–	0.03	–	45
C=CC(=O)N1CCN(c2nc(O[C@@H]3CN(C)C[C@H]3OCC)nc3c(Oc4c(Cl)c(F)cc5[nH]ncc45)nccc23)CC1 [Example 18I, 1-[4-(8-[(5-chloro-6-fluoro-1H-indazol-4-yl)oxy]-2-{[(3R,4R)-4-ethoxy-1-methyl-pyrrolidin-3-yl]oxy}pyrido [3,4-d]pyrimidin-4-yl)piperazin-1-yl]prop-2-en-1-one]	–	–	0.093	–	35
C=CC(=O)N1CCN(c2ncnc3c(Cc4c(C)ccc5[nH]ncc45)cccc23)CC1 [Example 01D, 1-(4-{8-[(5-methyl-1H-indazol-4-yl)methyl]quinazolin-4-yl}piperazin-1-yl)prop-2-en-1-one]	–	37	6.69	–	–
C=CC(=O)N1CCN(c2ncnc3c(Oc4c(CC)ccc5[nH]ncc45)nccc23)CC1 [Example 07A, 1-(4-{8-[(5-ethyl-1H-indazol-4-yl)oxy]pyrido[3,4-d]pyrimidin-4-yl}piperazin-1-yl)prop-2-en-1-one]	–	16	7.15	–	–
C=CC(=O)N1CCN(c2ncnc3c(Oc4c(C)ccc5[nH]ncc45)nc(C#N)cc23)CC1 [Example 18A, 4-(4-acryloylpiperazin-1-yl)-8-[(5-methyl-1H-indazol-4-yl)oxy]pyrido[3,4-d]pyrimidine-6-carbonitrile]	–	34	6.45	–	–
C=CC(=O)N1CCN(c2ncnc3c(Oc4c(Cl)c(F)cc5[nH]ncc45)nc(Cl)cc23)C[C@H]1C [Example 37A, 1-[(2R)-4-{6-chloro-8-[(5-chloro-6-fluoro-1H-indazol-4-yl)oxy]pyrido[3,4-d]pyrimidin-4-yl}-2-methylpiperazin-1-yl]prop-2-en-1-one]	63	–	0.622	–	–
C=CC(=O)N1CCN(c2nc(N3CC(N(C)C)C3)nc3c(Oc4c(Cl)c(C)cc5[nH]ncc45)cc(Cl)cc23)CC1 [Example 11E, 1-(4-{6-chloro-8-[(5-chloro-6-methyl-1H-indazol-4-yl)oxy]-2-[3-(dimethylamino)azetidin-1-yl]quinazolin-4-yl}piperazin-1-yl)prop-2-en-1-one]	–	68	3.95	–	–
C=CC(=O)N1CCN(c2nc(OC[C@@H]3C[C@@H](F)CN3C)nc3c(Oc4c(Cl)c(F)cc5[nH]ncc45)nc(Cl)cc23)CC1 [Example 16G, 1-[4-(6-chloro-8-[(5-chloro-6-fluoro-1H-indazol-4-yl)oxy]-2-{[(2S,4R)-4-fluoro-1-methylpyrrolidin-2-yl]methoxy}pyrido[3,4-d]pyrimidin-4-yl)piperazin-1-yl]prop-2-en-1-one]	14	–	0.111	–	–
C=CC(=O)N1CCN(c2ncnc3c(Oc4c(F)c(C)c(F)c5[nH]ncc45)nccc23)CC1 [Example 16A, 1-(4-{8-[(5,7-difluoro-6-methyl-1H-indazol-4-yl)oxy]pyrido[3,4-d]pyrimidin-4-yl}piperazin-1-yl)prop-2-en-1-one]	–	7	29.6	–	–
C=CC(=O)N1CCN(c2nc(O[C@@H]3CN(CCO)C[C@H]3OC)nc3c(Oc4c(Cl)c(F)cc5[nH]ncc45)nccc23)CC1 [Example 46I, 1-[4-(8-[(5-chloro-6-fluoro-1H-indazol-4-yl)oxy]-2-{[(3R,4R)-1-(2-hydroxy-ethyl)-4-methoxy-pyrrolidin-3-yl]oxy}pyrido [3,4-d]pyrimidin-4-yl)piperazin-1-yl]prop-2-en-1-one]	–	–	0.285	–	70

The remaining molecules from weak to strong by IC50 (KRAS G12C), led by results:

MSRA (% modification) 10 μM 0.25 hr [1] [%]	MSRA (% modification) 10 μM 0.50 hr [1] [%]	IC50 (KRAS G12C) [µM]	MSRA (% modification) 5.0 μM 0.25 hr [1] [%]	MSRA (% modification) 5.0 μM 0.017 hr [1] [%]	SMILES
21	33	28	–	–	C=CC(=O)N1CCN(c2ncnc3c(Oc4c(Cl)c(C)cc5[nH]ncc45)nc(C#N)cc23)CC1 [Example 19A, 4-(4-acryloylpiperazin-1-yl)-8-[(5-chloro-6-methyl-1H-indazol-4-yl)oxy]pyrido[3,4-d]pyrimidine-6-carbonitrile]
–	32	6.46	–	–	C=CC(=O)N1CCN(c2nc(N3CC(N(C)C)C3)nc3c(Oc4c(C)ccc5[nH]ncc45)cccc23)CC1 [Example 02E, 1-(4-{2-[3-(dimethylamino)azetidin-1-yl]-8-[(5-methyl-1H-indazol-4-yl)oxy]quinazolin-4-yl}piperazin-1-yl)prop-2-en-1-one]
–	61	1.29	–	–	C=CC(=O)N1CCN(c2ncnc3c(Oc4c(Cl)c(C)cc5[nH]ncc45)nc(C)cc23)CC1 [Example 05C, 1-(4-{8-[(5-chloro-6-methyl-1H-indazol-4-yl)oxy]-6-methylpyrido[3,4-d]pyrimidin-4-yl}piperazin-1-yl)prop-2-en-1-one]
–	79	0.835	–	–	C=CC(=O)N1CCN(c2nc(OCCCN(C)C)nc3c(Oc4c(Cl)c(C)cc5[nH]ncc45)cc(Cl)cc23)CC1 [Example 12E, 1-(4-{6-chloro-8-[(5-chloro-6-methyl-1H-indazol-4-yl)oxy]-2-[3-(dimethylamino)propoxy]quinazolin-4-yl}piperazin-1-yl)prop-2-en-1-one]
–	–	0.582	48	–	C=CC(=O)N1CCN(c2nc(OC3CCN(C)CC3)nc3c(Oc4c(Cl)c(F)cc5[nH]ncc45)nccc23)CC1 [Example 16I, 1-(4-{8-[(5-chloro-6-fluoro-1H-indazol-4-yl)oxy]-2-[(1-methyl-piperidin-4-yl)oxy]pyrido [3,4-d]pyrimidin-4-yl}piperazin-1-yl)prop-2-en-1-one]
65	–	0.18	–	–	C=CC(=O)N1CCN(c2nc(OC[C@H]3CCCN3C)nc3c(Oc4c(C)c(Cl)cc5[nH]ncc45)cccc23)CC1 [Example 21E, 1-[4-(8-[(6-chloro-5-methyl-1H-indazol-4-yl)oxy]-2-{[(2R)-1-methylpyrrolidin-2-yl]methoxy}quinazolin-4-yl)piperazin-1-yl]prop-2-en-1-one]
–	–	0.146	31	–	C=CC(=O)N1CCN(c2nc(OC[C@@H]3CCCN3C)nc3c(Oc4c(Cl)ccc5[nH]ncc45)cccc23)CC1 [Example 02L, 1-[4-(8-[(5-chloro-1H-indazol-4-yl)oxy]-2-{[(2S)-1-methylpyrrolidin-2-yl]methoxy}quinazolin-4-yl)piperazin-1-yl]prop-2-en-1-one]
–	–	0.123	–	13	C=CC(=O)N1CCN(c2nc(O[C@@H]3CN(C)C[C@H]3C(F)F)nc3c(Oc4c(Cl)c(F)cc5[nH]ncc45)nccc23)CC1 (single isomer, unassigned) [Example 59I]
–	–	0.022	82	70	C=CC(=O)N1CCN(c2nc(O[C@@H]3CN(C)C[C@H]3OC)nc3c(Oc4c(Cl)c(F)cc5[nH]ncc45)nccc23)CC1 [Example 10I, 1-[4-(8-[(5-chloro-6-fluoro-1H-indazol-4-yl)oxy]-2-{[(3R,4R)-4-methoxy-1-methylpyrrolidin-3-yl]oxy}pyrido[3,4-d]pyrimidin-4-yl)piperazin-1-yl]prop-2-en-1-one]
–	–	0.02	74	–	C=CC(=O)N1CCN(c2nc(Oc3cccnc3C3CC3)nc3c(Oc4c(Cl)c(F)cc5[nH]ncc45)nccc23)CC1 [Example 06I, 1-(4-{8-[(5-chloro-6-fluoro-1H-indazol-4-yl)oxy]-2-[(2-cyclo-propyl-pyridin-3-yl)oxy]pyrido [3,4-d]pyrimidin-4-yl}piperazin-1-yl)prop-2-en-1-one]
–	–	0.004	84	83	C=CC(=O)N1CCN(c2nc(O[C@@H]3CN(C)C[C@H]3OC)nc3c(Oc4c(Cl)c(F)cc5[nH]ncc45)nc(Cl)cc23)CC1 [Example 24G, 1-[4-(6-chloro-8-[(5-chloro-6-fluoro-1H-indazol-4-yl)oxy]-2-{[(3R,4R)-4-methoxy-1-methylpyrrolidin-3-yl]oxy}pyrido[3,4-d]pyrimidin-4-yl)piperazin-1-yl]prop-2-en-1-one]
